From patent publication US10342806B2, “Hormone treatment for age-related hearing loss-presbycusis” (priority 2014, dated 2019)

Columns and labels:
[1] = tested on: Spiral ganglion neuron (SGN); assay: Spiral ganglion neuron cell density, H&E staining of cochlear sections; assay type: in vivo, mouse; settings: upper apical, lower apical, upper basal, lower basal regions; ALD-treated middle-aged mice vs untreated control mice
Method: Death was confirmed by terminal phlebotomy/exsanguinations and perfusion.
For immunohistochemistry, mice were sacrificed, and one of the cochleae dissected, fixed in 4% paraformaldehyde in PBS overnight at 4° C., decalcification in 10% EDTA in PBS for a week at 4° C., and incubated in cryoprotection solution overnight at 4° C. The cochleae were embedded into degassed OCT overnight at 4° C., orientated into the cryomold with OCT degassed for 1 hour, then frozen at −80° C. Cryosectioning was performed at 5 μm per section. The cochlear cross sections were stained with hematoxylin and eosin (H&E) and MCR (H-300) (sc-11412, Santa Cruz Bio). The spiral ganglion neurons were counted by Metamorph imaging software (Molecular Devices, Center Valley, Pa. 18034-0610) and data analyzed by GraphPad Prism (GraphPad Software, Inc. La Jolla, Calif.).
Spiral ganglion neuron (SGN) cell density was measured from 4 different topographical area, comparing ALD-treated middle-aged mice to age-matched controls. […] Further, this increase in SGN is correlated with ABR threshold shifts (shown below) in the same mice.

[2] = tested on: SGK1 and Nedd4-2; assay: SGK1 and Nedd4-2 phosphorylation in HT-29 cells, Western blot; assay type: cell-based, human; settings: ALD 1 μM, GSK 650394 50 μM, 9 h
Method: FIG. 25 is a blot showing ALD modulation of NKCC1 via the ALD-SGK1-Nedd4-2 pathway. HT-29 cells were treated with ALD (1 μM) or ALD (1 μM)+GSK650394 (50 μM) for 9 h. Cell lysates were analyzed by Western blot as indicated. Blots are representative of 3 independent experiments. Left: controls. Middle: ALD increases the phosphorylations of SGK1 and Nedd4-2, concomitantly there is an increased induction of NKCC1 protein expression (1st row).
(§1) Western blot. Cell lysates were prepared in RIPA buffer (Pierce 89901; Thermo Scientific, Waltham, Mass.) with protease inhibitor cocktail (78430; Thermo Scientific). Cell samples were homogenized in buffer, followed by centrifugation at 2,000 rpm for 10 min at 4° C. Supernatants were subjected to Western blot analysis by loading 200 μg of protein per lane, after the protein concentrations were determined by Bradford protein assay. Proteins were fractionated by SDS-PAGE gel electrophoresis and transferred to a PVDF blotting membrane (Whatman, Piscataway, N.J.). The blot was incubated with primary antibodies against β-actin and Na—K-2C1 cotransport protein (Cell Signaling, Danvers Mass.); primary antibodies for p-SGK1, SGK1, pNedd4-2, and Nedd4-2 were utilized (concentration 1:1,000). The secondary antibody was horseradish peroxidaseconjugated goat anti-rabbit IgG (1:2,000; Cell Signaling).

[3] = tested on: NKCC1; assay: NKCC1 protein expression in HT-29 cells, Western blot; assay type: cell-based, human
Source text: Cell culture and buffers. […] Arch Oral Biol 52: 411-416, 2007). These include, for example, studies of COMM domain-containing protein 1, which is involved in NKCC1 ubiquitination and transcriptional regulation of epithelial Na^+ channels (ENaC) located in the apical membrane of polarized epithelial cells, in particular, cells in the colon, kidney, and lung, by ALD (Cohen, et al., Induced differentiation in HT29, a human colon adenocarcinoma cell line. J Cell Sci 112: […], 1999, Epple, et al., Early aldosterone effect in distal colon by transcriptional regulation of ENaC subunits. Am J Physiol Gastrointest Liver Physiol 278: G718-G724, 2000, Smith, et al., COMMD1 interacts with the COOH terminus of NKCC1 in Calu-3 airway epithelial cells to modulate NKCC1 ubiquitination. Am J Physiol Cell Physiol 305: C133-C146, 2013). HT-29 cells were grown in DMEM media (Invitrogen, Carlsbad Calif.) with 10% FBS and antibiotics. Cells were grown in a humidified 95%/5% CO2 incubator at 37° C. Experiments were performed at 70-80% confluence.
as §1
Statistical analysis. Images from films were imported into Adobe Photoshop (v 5.0), and further processed using Adobe Photoshop CS and ImageJ (National Institutes of Health) for the densitometry analysis. Data are reported as means±SD. Statistical analyses were performed with PRISM 4.0 (GraphPad Software, San Diego Calif.). Differences were analyzed with a one- or a two-way repeated measures ANOVA as appropriate or a two-way ANOVA followed by Bonferroni post hoc analyses that were corrected for multiple comparisons. Values of P <0.05 were considered significant.

[4] = tested on: NKCC1 ubiquitination; assay: Immunoprecipitation (autoubiquitination assay) of NKCC1 in HT-29 cells; assay type: cell-based, human; settings: MG132 20 μM 2 h, then ALD 1 μM and/or GSK 650394 50 μM for 24 h
Method: Immunoprecipitation (autoubiquitination assay) and western blot analysis. An autoubiquitination assay was followed (Garg, et al., Effect of the Na—K-2Cl cotransporter NKCC1 on systemic blood pressure and smooth muscle tone. Am J Physiol Heart Circ Physiol 292: H2100-H2105, 2007). Cell extracts were prepared in a modified radioimmunoprecipitation assay 1 (RIPA) buffer, containing the following (in mM): 50 Tris·HCl at pH 7.4, 150 NaCl, 1 EDTA, and 1 dithiothreitol with 1% Nonidet P-40, 0.1% SDS; in a 1:200-diluted protease inhibitor cocktail (Sigma), containing the following (in mM): 1 PMSF, 10 NEM, and 0.1 iodoacetamide Immunoprecipitations were accomplished using a rabbit polyclonal anti-NKCC1 antibody (Cell Signaling). Antibody was bound to lysate with endogenous NKCC1, and then beads were added. Bound proteins were eluted in 1× SDS sample buffer, fractionated on an SDS-polyacrylamide gel, transferred onto a […] membrane (GE Healthcare, Piscataway, N.J.), and immunoblotted with anti-ubiquitin antibody visualized using enhanced chemiluminescence detection reagents (Pears, Shelton Conn.) according to the manufacturer's instructions.
Immunoblotting with anti-ubiquitin antibody was performed as described above.
ALD decreases the endogenous ubiquitination of NKCC1 and inhibition of SGK1 activation blocks this downregulation. […]

Compound: C[C@]12CCC(=O)C=C1CC[C@@H]1[C@@H]2[C@@H](O)C[C@]2(C=O)[C@@H](C(=O)CO)CC[C@@H]12 [ALD, aldosterone]
- SGN density [1]: SGN density was higher
- phosphorylation of SGK1 and Nedd4-2 [2]: increases the phosphorylation of SGK1 and Nedd4-2
- induction of NKCC1 protein expression ([3]; ALD 1 μM, MG-132 20 μM, CQ 50 μM, 9 h): induce NKCC1 protein expression similarly
- decline of NKCC1 protein levels in response to cycloheximide ([3]; ALD 1 μM, cycloheximide 20 μg/ml, 3, 6, or 9 h, relative to nontreated cells): much slower
- threshold of NKCC1 induction (significant response) ([3]; HT-29 cells): ~10 pM
- time by which NKCC1 up-regulation took effect ([3]; HT-29 cells, ALD 1 μM): ≤ 2 h
- NKCC1 protein expression levels ([3]; HT-29 cells, ALD 1 μM, stable over 12-24 h): upregulated
- start of NKCC1 induction after treatment ([3]; HT-29 cells, ALD (1 nM)): 30 to 40 min
- endogenous ubiquitinated NKCC1 [4]: significantly reduced
